Measurements: US20240358693A1, “METHODS OF TREATING PAIN” (Aisa Pharma, Inc., priority 2023, published 2024)

Test system: participants with SSc-RP
Assay: Scleroderma Health Assessment Questionnaire (SHAQ): disability indices and visual analog scales
Format: in vivo, human
Details: Part A
How it was run: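 Participants with SSc-RP completed the SHAQ at screening and each in-clinic visit. Standard and alternative disability indices (eight categories, 0–3; standard adjusts for aids/assistance) plus Raynaud's VAS on interference over the past 7 days. Reported as absolute change from baseline to end of each dosing period.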

[1] = Modified ITT, dose Cilnidipine 20 mg, or 20 mg + Tadalafil 5 mg
[2] = PP Population, sensitivity analysis, Pooled Cilnidipine 10 mg and Cilnidipine 10 mg + Tadalafil 5 mg
[3] = PP Population, sensitivity analysis, Pooled Cilnidipine 20 mg and Cilnidipine 20 mg + Tadalafil 5 mg
[4] = PP Population, sensitivity analysis, cilnidipine 10 mg and/or tadalafil 5 mg as labelled

COCCOC(=O)C1=C(C)NC(C)=C(C(=O)OC/C=C/c2ccccc2)C1c1cccc([N+](=O)[O-])c1 (stereo not shown) [Cilnidipine, cilnidipine]
SHAQ Finger Ulcers, In Clinic Visit (Day 12), Mean [1]: 0.867
SHAQ Finger Ulcers, In Clinic Visit (Day 12), Median [1]: 0.700
SHAQ Standard disability index, Baseline, Mean [1]: 0.250
SHAQ Standard disability index, Baseline, Median [1]: 0.375
SHAQ Standard disability index, In Clinic Visit (Day 12), Mean [1]: 0.125
SHAQ Standard disability index, In Clinic Visit (Day 12), Median [1]: 0.125
SHAQ Visual Analog Scale-Breathing Problems, Baseline, Mean [1]: 1.133
SHAQ Visual Analog Scale-Breathing Problems, Baseline, Median [1]: 1.200
SHAQ Visual Analog Scale-Breathing Problems, In Clinic Visit (Day 12), Mean [1]: 0.300
SHAQ Visual Analog Scale-Breathing Problems, In Clinic Visit (Day 12), Median [1]: 0.400
SHAQ Visual Analog Scale-Intestinal Problems, Baseline, Mean [1]: 0.833
SHAQ Visual Analog Scale-Intestinal Problems, Baseline, Median [1]: 1.000
SHAQ Visual Analog Scale-Intestinal Problems, In Clinic Visit (Day 12), Mean [1]: 1.133
SHAQ Visual Analog Scale-Intestinal Problems, In Clinic Visit (Day 12), Median [1]: 1.300
SHAQ Visual Analog Scale-Pain, Baseline, Mean [1]: 2.167
SHAQ Visual Analog Scale-Pain, Baseline, Median [1]: 1.500
SHAQ Visual Analog Scale-Pain, In Clinic Visit (Day 12), Mean [1]: 1.067
SHAQ Visual Analog Scale-Pain, In Clinic Visit (Day 12), Median [1]: 0.700
SHAQ Visual Analog Scale-Raynaud's, Baseline, Mean [1]: 2.300
SHAQ Visual Analog Scale-Raynaud's, Baseline, Median [1]: 2.500
SHAQ Visual Analog Scale-Raynaud's, In Clinic Visit (Day 12), Mean [1]: 1.033
SHAQ Visual Analog Scale-Raynaud's, In Clinic Visit (Day 12), Median [1]: 1.100
SHAQ alternative disability index, Baseline, Mean [1]: 0.208
SHAQ alternative disability index, Baseline, Median [1]: 0.250
SHAQ alternative disability index, In Clinic Visit (Day 12), Mean [1]: 0.125
SHAQ alternative disability index, In Clinic Visit (Day 12), Median [1]: 0.125
SHAQ Alternative Disability Index: Baseline, Mean [2]: 0.458
SHAQ Alternative Disability Index: Baseline, Median [2]: 0.250
SHAQ Alternative Disability Index: Change from Baseline (Day 12), Mean [2]: 0.021
SHAQ Alternative Disability Index: Change from Baseline (Day 12), Median [2]: 0.000
SHAQ Alternative Disability Index: In-Clinic Visit (Day 12), Mean [2]: 0.479
SHAQ Alternative Disability Index: In-Clinic Visit (Day 12), Median [2]: 0.250
SHAQ Alternative Disability Index: Percent Change from Baseline (Day 12), Mean [2]: 28.11%
SHAQ Alternative Disability Index: Percent Change from Baseline (Day 12), Median [2]: −10.00%
SHAQ Alternative Disability Index: Baseline, Mean [3]: 0.453
SHAQ Alternative Disability Index: Baseline, Median [3]: 0.250
SHAQ Alternative Disability Index: Change from Baseline (Day 12), Mean [3]: −0.036
SHAQ Alternative Disability Index: Change from Baseline (Day 12), Median [3]: −0.063
SHAQ Alternative Disability Index: In-Clinic Visit (Day 12), Mean [3]: 0.417
SHAQ Alternative Disability Index: In-Clinic Visit (Day 12), Median [3]: 0.250
SHAQ Alternative Disability Index: Percent Change from Baseline (Day 12), Mean [3]: 13.40%
SHAQ Alternative Disability Index: Percent Change from Baseline (Day 12), Median [3]: −18.13%
SHAQ Visual Analogue Scale - Breathing Problems: Baseline, Mean [4]: 1.875
SHAQ Visual Analogue Scale - Breathing Problems: Baseline, Median [4]: 0.000
SHAQ Visual Analogue Scale - Breathing Problems: Change from Baseline (Day 12), Mean [4]: −0.300
SHAQ Visual Analogue Scale - Breathing Problems: Change from Baseline (Day 12), Median [4]: 0.000
SHAQ Visual Analogue Scale - Breathing Problems: In-Clinic Visit (Day 12), Mean [4]: 1.575
SHAQ Visual Analogue Scale - Breathing Problems: In-Clinic Visit (Day 12), Median [4]: 0.000
SHAQ Visual Analogue Scale - Breathing Problems: Percent Change from Baseline (Day 12), Mean [4]: −16.00%
SHAQ Visual Analogue Scale - Breathing Problems: Percent Change from Baseline (Day 12), Median [4]: −16.00%
SHAQ Visual Analogue Scale - Finger Ulcers: Baseline, Mean [4]: 0.700
SHAQ Visual Analogue Scale - Finger Ulcers: Baseline, Median [4]: 0.500
SHAQ Visual Analogue Scale - Finger Ulcers: Change from Baseline (Day 12), Mean [4]: −0.425
SHAQ Visual Analogue Scale - Finger Ulcers: Change from Baseline (Day 12), Median [4]: −0.350
SHAQ Visual Analogue Scale - Finger Ulcers: In-Clinic Visit (Day 12), Mean [4]: 0.275
SHAQ Visual Analogue Scale - Finger Ulcers: In-Clinic Visit (Day 12), Median [4]: 0.000
SHAQ Visual Analogue Scale - Finger Ulcers: Percent Change from Baseline (Day 12), Mean [4]: −69.44%
SHAQ Visual Analogue Scale - Finger Ulcers: Percent Change from Baseline (Day 12), Median [4]: −69.44%
SHAQ Visual Analogue Scale - Intestinal Problems: Baseline, Mean [4]: 2.975
SHAQ Visual Analogue Scale - Intestinal Problems: Baseline, Median [4]: 2.550
SHAQ Visual Analogue Scale - Intestinal Problems: Change from Baseline (Day 12), Mean [4]: −1.875
